Test results published in patent US8455544B2, “Synthetic triterpenoids and methods of use in the treatment of disease” (Reata Pharmaecuticals, Inc., priority 2008, dated 2013).

Key:
[1] = tested on: IFNγ-induced NO production in RAW264.7 macrophages; assay: Suppression of IFNγ-induced NO production (Griess reagent system); type: cell-based; conditions: Mus musculus; RAW264.7, pre-treated 2 hours, then 20 ng/ml IFNγ for 24 hours
RAW264.7 macrophages = assay: Cell viability, WST-1 reagent; type: cell-based; conditions: Mus musculus, RAW264.7 (20 ng/ml IFNγ)
[2] = tested on: cisplatin-induced renal toxicity; assay: Rat cisplatin-induced acute renal injury; type: in vivo
Experimental: FIGS. 2a-c—RTA 402 reduces cisplatin-induced renal toxicity. Rats were administered RTA 402 at 10 mg/kg or simply the vehicle (sesame oil) every day by oral gavage beginning on Day −1. On Day 0, the rats received an intravenous injection of cisplatin at 6 mg/kg. Blood samples were drawn on the indicated days and the levels of creatinine (FIG. 2a) and blood urea nitrogen (BUN) (FIG. 2b) were measured as markers of renal damage. A statistically significant difference was observed between the vehicle-treated and RTA 402-treated groups on Day 3 (creatinine) and Day 5 (creatinine and BUN). (FIG. 2c) Less damage to the proximal tubules is observed in RTA 402-treated animals compared to vehicle-treated animals.
In another model of acute renal injury, rats were injected intravenously with the antineoplastic agent cisplatin. In humans, nephrotoxicity is a dose-limiting side effect of treatment with cisplatin. Cisplatin-induced damage to the proximal tubules is thought to be mediated by increased inflammation, oxidative stress, and apoptosis (Yao et al., 2007). Rats treated with a single dose of cisplatin at 6 mg/kg developed renal insufficiency as measured by increased blood levels of creatinine and BUN.

[3] = Serum creatinine in toxicology study, dogs; type: in vivo, beagle dogs; conditions: oral, daily for three months
Experimental: FIGS. 3a-d—RTA 402 reduces serum creatinine levels in monkeys, dogs, and rats. (FIG. 3a) Cynomolgus monkeys were administered RTA 402 orally at the indicated doses once daily for 28 days. The percent reduction of serum creatinine on Day 28 in RTA 402-treated monkeys relative to vehicle-treated control monkeys is shown. (FIG. 3b) RTA 402 was administered orally to beagle dogs at the indicated doses daily for three months. Control animals received vehicle (sesame oil). The percent change in serum creatinine at the three-month time point relative to baseline is shown. (FIG. 3c) Sprague-Dawley rats were administered RTA 402 orally at the indicated doses once daily for a period of one month. The percent reduction of serum creatinine at study completion in RTA 402-treated rats relative to vehicle-treated control rats is shown. (FIG. 3d) Sprague-Dawley rats were administered the amorphous form of RTA 402 orally at the indicated doses once daily for a period of three months. The percent reduction of serum creatinine at study completion in RTA 402-treated rats relative to vehicle-treated control rats is shown. […] For example, a reading of −15 on this axis indicates a 15% reduction in serum creatinine.
Serum creatinine has been measured in several animal species treated with RTA 402 in the course of toxicology studies. […]

[4] = tested on: patients with pancreatic cancer; assay: Study of RTA 402 in combination with gemcitabine in patients with pancreatic cancer: eGFR; type: in vivo, human; design: unit not given here
Experimental: FIG. 5—RTA 402 increases GFR in human patients with cancer. Estimated glomerular filtration rate (eGFR) was measured in RTA 402-treated patients enrolled in a multi-month clinical trial for the treatment of cancer. All patients (n=11) dosed through six months were included in the analysis. The dosing information for these patients is provided in Example 5, below.
Some of these patients were enrolled in the Phase I study, whereas others were enrolled in a study of RTA 402 (in combination with gemcitabine) in patients with pancreatic cancer.

[5] = tested on: patients with diabetic nephropathy; assay: Hyperinsulinemic euglycemic clamp test, Phase II study; type: in vivo, human; conditions: after the 28 day treatment
[6] = tested on: NQO1 in Hepa1c1c7 murine hepatoma cells; conditions: concentration required to induce a two-fold increase in expression of NQO1, Hepa1c1c7 cells; cited from earlier work
[7] = 10 mg/kg oral gavage daily from one day prior to cisplatin 6 mg/kg i.v.

## COC(=O)[C@]12CCC(C)(C)C[C@H]1[C@H]1C(=O)C=C3[C@@]4(C)C=C(C#N)C(=O)C(C)(C)[C@@H]4CC[C@@]3(C)[C@]1(C)CC2 [RTA 402, methyl-2-cyano-3,12-dioxooleana-1,9-dien-28-oic acid]
[1]
  IC50: 2.2 nM
RAW264.7 macrophages
  IC50: 80 nM
[2]; 10 mg/kg oral gavage daily
  Extent of proximal tubule damage (histological evaluation) compared to vehicle: improvement
[2]; [7]
  Blood levels of BUN: significantly reduced
  Blood levels of creatinine: significantly reduced
[3]
  Serum creatinine levels relative to baseline: Significant reductions
[4]; Pt 1001, dose 150 mg, cycle 1, BL 68.8
  eGFR: 78.9
[4]; Pt 1001, dose 150 mg, cycle 2, BL 68.8
  eGFR: 109.9
[4]; Pt 1001, dose 150 mg, cycle 3, BL 68.8
  eGFR: 135.7
[4]; Pt 1001, dose 150 mg, cycle 4, BL 68.8
  eGFR: 175.5
[4]; Pt 1001, dose 150 mg, cycle 5, BL 68.8
  eGFR: 175.5
[4]; Pt 1001, dose 150 mg, cycle 6, BL 68.8
  eGFR: 135.7
[4]; Pt 1104, dose 300/150 mg, cycle 1, BL 67.3
  eGFR: 95.7
[4]; Pt 1104, dose 300/150 mg, cycle 2, BL 67.3
  eGFR: 71.6
[4]; Pt 1104, dose 300/150 mg, cycle 3, BL 67.3
  eGFR: 141.2
[4]; Pt 1104, dose 300/150 mg, cycle 4, BL 67.3
  eGFR: 95.7
[4]; Pt 1104, dose 300/150 mg, cycle 5, BL 67.3
  eGFR: 114.4
[4]; Pt 1104, dose 300/150 mg, cycle 6, BL 67.3
  eGFR: 114.4
[4]; Pt 1105, dose 300 mg, cycle 1, BL 82.4
  eGFR: 106.6
[4]; Pt 1105, dose 300 mg, cycle 2, BL 82.4
  eGFR: 89.3
[4]; Pt 1105, dose 300 mg, cycle 3, BL 82.4
  eGFR: 106.6
[4]; Pt 1105, dose 300 mg, cycle 4, BL 82.4
  eGFR: 106.6
[4]; Pt 1105, dose 300 mg, cycle 5, BL 82.4
  eGFR: 131.6
[4]; Pt 1105, dose 300 mg, cycle 6, BL 82.4
  eGFR: 170.3
[4]; Pt 1106, dose 300 mg, cycle 1, BL 89.0
  eGFR: 106.3
[4]; Pt 1106, dose 300 mg, cycle 2, BL 89.0
  eGFR: 106.3
[4]; Pt 1106, dose 300 mg, cycle 3, BL 89.0
  eGFR: 106.3
[4]; Pt 1106, dose 300 mg, cycle 4, BL 89.0
  eGFR: 131.2
[4]; Pt 1106, dose 300 mg, cycle 5, BL 89.0
  eGFR: 131.2
[4]; Pt 1106, dose 300 mg, cycle 6, BL 89.0
  eGFR: 131.2
[5]
  Glucose disposal rate (GDR): improvements
[5]; more severely impaired patients (GDR<4), p≦0.02
  Glucose disposal rate (GDR): statistically significant improvements
[6]
  NQO1 CD: 1.0 nM
